Patent US5420138A, “Bicyclic pyridines which are angiotensin II inhibitors” (Roussel-UCLAF, priority 1992, dated 1995)

What was measured:
angiotensin II receptor = molecular target: T1, angiotensin II receptor (Rattus norvegicus, UniProt P25095); experiment: Test on the angiotensin II receptor (displacement of 125I angiotensin II, fresh rat liver membrane preparation); assay type: binding; settings: rat liver membranes, 25° C., 150 minutes, read-out: IC50 (50% inhibiting concentration, displacement of 125I angiotensin II)
T1 construct: A fresh membrane preparation obtained from the liver of a rat was used; from tissue; host or cells: rat liver, fresh membrane preparation
T1 sequence (P25095 1-359): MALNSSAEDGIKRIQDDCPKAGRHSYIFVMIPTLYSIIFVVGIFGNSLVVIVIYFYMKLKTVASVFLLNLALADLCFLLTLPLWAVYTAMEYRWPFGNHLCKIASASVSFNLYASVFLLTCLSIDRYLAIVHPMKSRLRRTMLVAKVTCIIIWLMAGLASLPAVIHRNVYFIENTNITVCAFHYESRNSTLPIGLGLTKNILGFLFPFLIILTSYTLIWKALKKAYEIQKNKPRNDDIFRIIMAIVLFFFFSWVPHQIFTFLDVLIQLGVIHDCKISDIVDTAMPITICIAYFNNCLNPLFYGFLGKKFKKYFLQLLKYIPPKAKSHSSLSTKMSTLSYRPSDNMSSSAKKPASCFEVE
Description: A fresh membrane preparation obtained from the liver of a rat was used. The tissue was ground in a polytron in a Tris 50 mM pH 7.4 buffer and the grinding is followed by 3 centrifugings at 30,000 g for 15 minutes with intermediate taking up of the pellets in the Tris pH 7.4 buffer.
The last pellets were suspended in an incubation buffer (Tris 20 mM, NaCl 135 mM, KCl 10 mM, glucose 5 mM, MgCl2 10 mM, PMSF 0.3 mM, bacitracin 0.1 mM, BSA 0.2%).
2 ml aliquot fractions were distributed in hemolysis tubes and ^125 I angiotensin II (25,000 DPM/tube) and the product to be studied were added. The product was first tested with 3×10^-5 M in triplicate. When the tested product displaced more than 50% of the radioactivity bound specifically to the receptor, it was tested again according to a range of 7 concentrations to determine the concentration which inhibited by 50% the radioactivity bound specifically to the receptor. In this way, the 50% inhibiting concentration was determined.
The non-specific bond was determined by the addition of the product of Example 94 of the European Patent 0253310, at 10^-5 M (in triplicate).The product was incubated at 25° C. for 150 minutes, put in a water-bath at 0° C. for 5 minutes, filtered under vacuum, rinsed with Tris pH 7.4 buffer and the radioactivity was counted in the presence of scintillating Triton. […]

angiotensin II [1] = experiment: Test for antagonistic activity of angiotensin II in a demedullated rat (intravenous); assay type: in vivo, Male Sprague-Dawley rats; settings: injected via right jugular vein 5 minutes before angiotensin II (0.75 micrograms/kg), diastolic arterial pressure, read-out: ID50 (dose inhibiting the effects on pressure of angiotensin II by 50%)
Description: Male Sprague-Dawley rats (250 to 350 g) were anaesthetized by an intra-peritoneal injection of sodium pentobarbital (60 mg/kg). The diastolic arterial pressure was recorded using a heparinated catheter (PE50) introduced into the left carotid artery of the animal, and connected to a pressure processor (Gould, Pressure Processor) by means of a Gould pressure sensor.
A catheter was introduced into the right jugular vein of the animal to permit the injection of the molecules to be studied.
The animal was placed under assisted respiration. A bilateral section of the pneumogastric nerve is carried out. The rat is then demedullated.
After a sufficient period of stabilization, the study of the antagonism of the molecules vis-a-vis angiotensin II (Hypertensin, CIBA) was carried out in the following way:
1--Three consecutive injections of angiotensin II (0.75 micrograms/kg) at 15 minute intervals enabled a reproducible and stable pressure response to be obtained.
2--While keeping an administration frequency of 15 minutes of the angiotensin II, the molecules (0.01 to 10 mg/kg) were injected 5 minutes before the angiotensin II.
The effects on pressure of angiotensin II in the presence of the antagonist were expressed as a percentage of the effects on pressure of angiotensin II administered on its own. The dose inhibiting the studied effect by 50% was determined in this way (ID50). […]

angiotensin II [2] = experiment: Test of the antagonistic activity of angiotensin II by oral route in a demedullated rat; assay type: in vivo, Male Sprague Dawley rats; settings: oral (force-feeding), angiotensin II 0.75 ug/kg 60 and 75 minutes after force-feeding, read-out: ID50 (dose inhibiting the effects on pressure of angiotensin II by 50%), oral route
Description: Male Sprague Dawley rats of equal weight (300-330 g) were selected. The animals were divided into several groups (n ≥6 per group), receiving either the solvent (control group) or the antagonistic molecule of angiotensin II. The doses administered were determined from the ID50 IV. The solvent used. was methyl cellulose (5 ml/kg).
45 minutes after force-feeding, the animals were anaesthetized with sodium pentobarbital (60 mg/kg, IP). The diastolic arterial pressure was recorded using a heparinated catheter (PE50) introduced into the left carotid artery of the animal, and connected by means of a pressure sensor (Gould, P10 EZ) to a pressure processor (Gould, Pressure Processor). The rat was put under assisted respiration, then demedullated and bilaterally vagotomized.
Two injections of angiotensin II (0.75 ug/kg; Hypertensin, Ciba) were given via the pudendal vein, 60 and 75 minutes respectively after the force-feeding of the animals.
The effects on pressure of angiotensin II in the presence of the antagonist were expressed as a percentage of the effects on pressure of angiotensin II administered to the control group.
For each product, the dose inhibiting the studied effect by 50% (ID50) was thus determined.

SMILES | IC50 (angiotensin II receptor) [nM] | ED50 (angiotensin II [1]) [mg/kg] | ED50 (angiotensin II [2]) [mg/kg]
CCCCc1nn2cccc(C(=O)O)c2c1Cc1ccc(-c2ccccc2-c2nnn[nH]2)cc1 [Example 21, 2-butyl 3-[(2'-(1H-tetrazol-5-yl) (1,1'-biphenyl) 4-yl)methyl]pyrazolo(1,5-a)pyridin 4-carboxylic acid] | 0.5 | 0.3 | 2.35
CCCCc1nn2c(C)cccc2c1Cc1ccc(-c2ccccc2-c2nn[nH]n2)cc1 [Example 32, 2-butyl 7-methyl 3-[[2'-(1H-tetrazol--S--yl) (1,1'-biphenyl) 4-yl]methyl]pyrazolo (1,5-a) pyridine] | 24 |  | 
